Several values for one entry are separate records, joined by “and”; a condition that tells them apart may be missing. Identical values can stand only once. Entries after “also recorded” stand apart in the source; their conditions may differ.
Tests used:
Format in all cases: in vivo, rat
[1] = system: angiotensin II infused rats; assay: Assay A angiotensin II infusion model: systolic blood pressure by tail-cuff; settings: Wistar rats, 1% NaCl, angiotensin II 25 ng/min sc; eplerenone 100 mpk; 4 weeks
Description: Assay A: In Vivo Angiotensin II Infusion Model
(§1) Male Wistar rats (n—50, 10/group; BW=200 g)
(§2) 2. Angiotensin 11 (25 ng/min, sc via aizet minipump)
SBP measured by tail-cuff every week

cyclooxygenase-2 (COX-2) [2] = assay: Assay A angiotensin II infusion model: cyclooxygenase-2 immunostaining of hearts; settings: angiotensin II infused rats; eplerenone 100 mpk
Description: as §1, §2

[3] = system: aldosterone + salt treated rats; assay: Assay C: myocardial histopathology, semi-quantitative injury score 0 to 4; settings: for Myocardial Necrosis (0-4), Mean: group mean
Description: The procedure of Assay B was expanded upon in a further study. […] Myocardial tissue from animals in each treatment group was examined after 7, 14, or 30 days of treatment. […] Lesions were preceded by the expression and progressive upregulation of proinflammatory molecules. […] Prior to surgery the animals were individually weighed and placed in one of the following groups: […] Potassium chloride supplementation was added to the saline solution in order to prevent the potential hypokalemia associated with aldosterone excess. […] Louis, Mo.) was inserted subcutaneously at the nape of the neck. Aldosterone was administered at a dose of […]. […] Animals were sacrificed from each group (n=8-13) after 7, 14, or 30 days of treatment. Following exsanguination, hearts and kidneys were isolated, removed, rinsed in cold phosphate-buffered saline, and blotted dry. […] The equatorial regions of the heart were routinely processed into paraffin with an automated tissue processor (Hypercenter XP, Shandon/Lipshaw Inc., Pittsburgh, Pa.) and embedded into fresh paraffin apical side down (Shandon Embedding Center, Shandon/Lipshaw Inc.). […] Ten m sections were stained with the collagen specific stain, Picrosirius Red F3BA (Saturated Picric Acid (Sigma Chemical, St. […] Waterbury, Conn.) (6). Mounted tissues were hydrated with water. […] Slides were coverslipped with #1 cover glass using Permount Histological Mounting Media (Fisher Scientific). Two slides mounted with 5 m sections were cut for each animal. One slide was processed for H&E staining and one for Periodic Acid Schiff (PAS) staining. The H&E and PAS were used for pathological scoring of the hearts. Semi-quantification of myocardial injury was performed as described previously with minor modifications (7). Briefly, a scale from 0 to 4 was used to score the level of myocardial injury. A score of 0 represented no damage. […] Myocardial necrosis was defined as the presence of necrotic changes in cardiomyocytes such as nuclear pyknosis or karyolysis, non-contracting marginal wavy fibers and hypereosinophilia of the cytoplasm, or clear evidence of destruction of the cardiomyocyte membrane.

osteopontin = assay: Assay B aldosterone infusion model: osteopontin immunohistochemistry of hearts; settings: aldosterone infused rats; eplerenone 100 mpk p.o.
Description: Assay B: In vivo Aldosterone Infusion Model Male Sprague Dawley rats (n=39; BW=250 g) […] Uni-nephrectomy performed during implantation of mini-pumps 2. Aldosterone ([…], sc via aizet minipump) 2. […] 1. […] Sacrifice after 4 weeks. Determination of osteopontin and COX-2 was performed by quantitative RT-PCR (Taqman). Osteopontin was also identified in the heart by immunohistochemistry.

cyclooxygenase-2 (COX-2) [4] = assay: Assay C: COX-2 relative mRNA expression in heart (TaqMan); settings: for COX-2, Mean / COX-2: mRNA; for COX-2, Mean: group mean; for COX-2: individual rats; for COX-2 mRNA expression in myocardium: time course 7, 14, 30 days, eplerenone 100 mg/kg/day
Description: The procedure of Assay B was expanded upon in a further study. […] Myocardial tissue from animals in each treatment group was examined after 7, 14, or 30 days of treatment.
Potassium chloride supplementation was added to the saline solution in order to prevent the potential hypokalemia associated with aldosterone excess.
At the time of the surgery, an Alzet 2002 osmotic minipump (Alza Corp., Palo Alto, Calif.) containing either vehicle (9% ethanol/87% propylene glycol/4% dH2O) or 1.0 mg/mL d-aldosterone (Sigma Chemical, St. Louis, Mo.) was inserted subcutaneously at the nape of the neck. Aldosterone was administered at a dose of 0.75 g/hour. […] Animals were sacrificed from each group (n=8-13) after 7, 14, or 30 days of treatment.
The fluorogenic 5′-nuclease assay (TaqMan PCR) using Applied Biosystems' 7700 Sequence Detection System (Applied Biosystems, Foster City, Calif.) allowed for real time detection/quantitation of a specific gene by monitoring the increase in fluorescence of a gene-specific, dye-labeled oligonucleotide probe. Probes for target and reference genes were labeled at the 5′-end with a 6-carboxyfluorescein (6FAM) reporter dye and at the 3′-end with a 6-carboxy-N,N,N′,N′-tetramethylrhodamine (TAMRA) quencher dye. When the probe was annealed to the target gene, fluorescence of 6FAM was prevented by the close proximity of TAMRA. The exonuclease activity of Taq polymerase released the dyes from the oligonucleotide probe by displacing the probe from the target sequence resulting in fluorescence excitation in direct proportion to the amount of target message present. Data analysis was performed using the Sequence Detection System software from Applied Biosystems.
All primers and probes were designed using Primer Express software supplied with the 7700 Sequence Detection System and synthesized by Applied Biosystems. Standard curves using 5-fold dilutions of total RNA (from 200 ng to 320 pg) were performed to determine the efficiency of each primer/probe set in the TaqMan reaction prior to the analysis of the experimental samples. Primer/probe sets were designed from known sequences of rat genes to be analyzed. All target gene values were normalized to a reference gene, constitutively expressed cyclophilin. Primer/probe set sequences can be found in Table 8.
RNA was extracted from frozen (−80° C.) rat heart tissue using the Totally RNA Isolation Kit (Ambion, Inc., Austin, Tex.). Tissue was crushed using a stainless steel mortar and pestle, which had been chilled to −80° C. and transferred to a dounce homogenizer (Kontes, Vineland, N.J.) containing 3-10 mL cold denaturation buffer. Tissue was homogenized and transferred to a sterile, 15 mL polypropylene centrifuge tube. An equal volume of phenol:chloroform:isoamyl alcohol (25:24:1) was added, samples were shaken vigorously for 1 min, and incubated on ice for at least 15 min. Samples were centrifuged for 30 min at 10,000 g. The aqueous phase was removed, 1/10 volume of a sodium acetate solution (3.0 M NaOAc pH 4.5) was added, samples were shaken or inverted for 10 seconds, and acid-phenol (premixed with isoamyl alcohol):chloroform (5:1, Ambion, Inc.) was added at an volume equivalent to the starting sample volume. Samples were shaken vigorously for 1 min, followed by a 15-min incubation on ice, and centrifuged for 30 min at 10,000 g. The aqueous phase removed and placed in a clean polypropylene tube. An equal volume of isopropanol (Sigma, St. Louis, Mo.) was added and the samples were mixed and incubated overnight at −20° C. The samples were centrifuged for 30 min at 10,000 g, the supernatant was removed and the RNA pellet was resuspended in DNAse/RNAse-free water. Samples were frozen at −80° C. for at least 2 hours, thawed on wet ice, and diluted for quantitation.

SMILES | Systolic Blood Pressure [1] | Cyclooxygenase-2 expression in the heart (immunostaining) (cyclooxygenase-2 (COX-2) [2]) | Myocardial Necrosis (0-4), Mean ([3]; 14 days of treatment) | Myocardial Necrosis (0-4), Mean ([3]; 30 days of treatment) | Osteopontin expression in the heart (immunostaining) (osteopontin) | COX-2, Mean (cyclooxygenase-2 (COX-2) [4]; 14 days of treatment) [AU] | COX-2, Mean (cyclooxygenase-2 (COX-2) [4]; 30 days of treatment) [AU] | COX-2 mRNA expression in myocardium (cyclooxygenase-2 (COX-2) [4]) | also measured
COC(=O)[C@@H]1CC2=CC(=O)CC[C@]2(C)[C@@]23O[C@@H]2C[C@@]2(C)[C@@H](CC[C@@]24CCC(=O)O4)[C@H]13 [eplerenone, Pregn-4-ene-7,21-dicarboxylic acid, 9,11-epoxy-17-hydroxy-3-oxo-, γ-lactone, methyl ester, (7α, 11α, 17β) -] | Neither eplerenone nor adrenalectomy reduced blood pressure | prevention by eplerenone of induction of COX-2 expression; also recorded: markedly reduced and in most cases completely prevented the expression of cycloxygenase-2 | 0.5 | 0.0 | prevention by eplerenone of induction of osteopontin expression; also recorded: prevented the expression of osteopontin | 2.02 | 2.28 | inhibition of early time-course expression of myocardial COX-2; also recorded: significantly reduced | Myocardial injury (vascular and myocardial damage, histopathology) ([3]; 7, 14, 30 days, eplerenone 100 mg/kg/day): markedly attenuated myocardial injury at all time points; also recorded: markedly attenuated this initial vascular inflammatory response and subsequent myocardial injury; Myocardial Necrosis (0-4) ([3]; individual rats, 14 days of treatment, eplerenone 100 mg/kg/day, listed as Eplerenone + aldosterone + salt): 0.0; Myocardial Necrosis (0-4) ([3]; mean ± SEM after 30 days of treatment, eplerenone 100 mg/kg/day): 0.0 ± 0.0; COX-2, Mean (cyclooxygenase-2 (COX-2) [4]; 7 days of treatment): 1.25 AU; COX-2 (cyclooxygenase-2 (COX-2) [4]; 7 days of treatment, listed as Eplerenone + aldosterone + salt): 1.19 AU and 0.60 AU (2×) and 0.82 AU and 0.91 AU; COX-2 (cyclooxygenase-2 (COX-2) [4]; 14 days of treatment, listed as Eplerenone + aldosterone + salt): 0.70 AU and 0.99 AU and 0.86 AU; COX-2 (cyclooxygenase-2 (COX-2) [4]; 30 days of treatment, listed as Eplerenone + aldosterone + salt): 0.55 AU and 1.34 AU
C[C@]12CCC(=O)C=C1CC[C@@H]1[C@@H]2[C@@H](O)C[C@]2(C=O)[C@@H](C(=O)CO)CC[C@@H]12 [aldosterone] | increased blood pressure | restored the presence of cycloxygenase-2 in coronary arteries | 0.8 | 2.0 | osteopontin was clearly identified in the media of coronary arteries | 4.34 | 4.53 | significantly increased | Myocardial Necrosis (0-4) ([3]; Table 9.14, 7-day protocol, score 0-4, group Mean): 0.0; Myocardial Necrosis (0-4) ([3]; Table 9.14, 7-day protocol, score 0-4, individual rats): 0.0; Myocardial Necrosis (0-4) ([3]; mean ± SEM after 7 days of treatment, eplerenone 100 mg/kg/day): 0.0 ± 0.0; COX-2 (cyclooxygenase-2 (COX-2) [4]; 7 days of treatment, listed as Aldosterone + salt): 2.10 AU and 0.70 AU and 0.82 AU; COX-2 (cyclooxygenase-2 (COX-2) [4]; 14 days of treatment, listed as Aldosterone + salt): 5.80 AU and 4.18 AU; COX-2 (cyclooxygenase-2 (COX-2) [4]; 30 days of treatment, listed as Aldosterone + salt): 3.10 AU and 8.20 AU

— US20030162759A1, “Aldosterone blocker therapy to prevent or treat inflammation-related disorders” (priority 2000, published 2003)
